From US7166617B2, “Cyclic amide derivatives” (Mitsubishi Pharma Corporation, priority 2000, dated 2007)
Structures can show the parent of a compound that is named as a salt.

The molecules below were run against T1, sigma 2 receptor (Rattus norvegicus, UniProt Q5U3Y7) (assay: Sigma 2-selective receptor binding inhibition test ([3H]-DTG, rat liver P2 membrane fraction)). Conditions: [3H]-DTG 1 nM, 500 nM pentazocine, P2 fraction of livers of male Sprague-Dawley rats, 25° C., 2 hours.
T1 construct: A crude P2 membrane fraction was prepared from livers of male rats (Sprague-Dawley rats); from tissue; host or cells: rat liver (male Sprague-Dawley), crude P2 membrane fraction
T1 sequence (Q5U3Y7 1-176): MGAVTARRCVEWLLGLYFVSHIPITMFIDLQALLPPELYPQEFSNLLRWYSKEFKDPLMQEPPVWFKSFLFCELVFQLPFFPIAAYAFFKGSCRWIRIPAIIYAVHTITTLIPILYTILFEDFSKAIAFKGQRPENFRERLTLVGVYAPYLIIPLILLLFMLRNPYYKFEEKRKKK
Description: Sigma Binding Site-Binding Inhibition Test
A crude P2 membrane fraction was prepared from livers of male rats (Sprague-Dawley rats) according to a method described in the literature (X. He, et al., J. Med. Chem., 36, pp. 566–571, 1993). In the presence of 500 nM pentazocine and a control compound at various concentrations (haloperidol, 10^−10 to 10^−6 M) or a test ligand at various concentrations (10^−10 to 10^−5 M) together with a radioactive ligand, the P2 fraction (0.4 ml) was incubated in 50 mM Tris-HCl (pH 7.4, final volume: 0.5 ml) at 25° C. for 2 hours. The reaction mixture was rapidly filtered on a Brandel cell harvester using Whatman GF/B filter paper, which was immersed beforehand in 0.5% polyethyleneimine for 1 hour, to stop the reaction. The filter paper was washed 4 times with the ice cooled incubation buffer. The non-specific results were evaluated by using 1 μM haloperidol, and the scintillation analysis and the curve analysis were performed as described above.

Ki [nM] | Structure (SMILES)
24 | O=C1c2ccc(Br)cc2CN1CC1CCN(CC(O)c2ccc(F)cc2)CC1 (racemic) [Example 17, (R,S)-5-Bromo-2-[[1-[2-(4-fluorophenyl)-2-hydroxyethyl]piperidin-4-yl]methyl]isoindolin-1-one hydrochloride]
16 | O=C(CN1CCC(CN2Cc3ccc(F)cc3C2=O)CC1)c1ccc(F)cc1 [Example 7, 6-Fluoro-2-[[1-[2-(4-fluorophenyl)-2-oxoethyl]piperidin-4-yl]methyl]isoindolin-1-one hydrochloride]
3.1 | O=C(CN1CCC(CN2Cc3cc(Cl)ccc3C2=O)CC1)c1ccc(F)cc1 [Example 8, 5-Chloro-2-[[1-[2-(4-fluorophenyl)-2-oxoethyl]piperidin-4-yl]methyl]isoindolin-1-one hydrochloride]
3.4 | O=C(CN1CCC(CN2Cc3ccccc3C2=O)CC1)C1CCCCC1 [Example 84, 2-[[1-(2-Cyclohexyl-2-oxoethyl)piperidin-4-yl]methyl]isoindolin-1-one fumarate]
2.8 | O=C1c2ccccc2CN1CC1CCN(CCOc2ccc(F)cc2)CC1 [Example 32, 2-[[1-[2-(4-Fluorophenyloxy)ethyl]piperidin-4-yl]methyl]isoindolin-1-one hydrochloride]

Same assay, conditions: test compound 10 nM; [3H]-DTG 1 nM, 500 nM pentazocine, rat liver P2 fraction; read-out: Inhibitory rate against sigma 2 (%, 10 nM)

inhibition at 0.01 µM [%] | Structure (SMILES)
80 | Cc1ccccc1C(=O)CN1CCC(CN2Cc3ccccc3C2=O)CC1 [Example 77, 2-[[1-[2-(2-Tolyl)-2-oxoethyl]piperidin-4-yl]methyl]isoindolin-1-one fumarate]
86 | Cc1cccc(C(=O)CN2CCC(CN3Cc4ccccc4C3=O)CC2)c1 [Example 78, 2-[[1-[2-(3-Tolyl)-2-oxoethyl]piperidin-4-yl]methyl]isoindolin-1-one fumarate]
84 | O=C(CN1CCC(CN2Cc3ccccc3C2=O)CC1)c1cccc(Cl)c1 [Example 76, 2-[[1-[2-(3-Chlorophenyl)-2-oxoethyl]piperidin-4-yl]methyl]isoindolin-1-one fumarate]
57 | O=C(CN1CCC(CN2Cc3ccoc3C2=O)CC1)c1ccc(F)cc1 [Example 158, 5-[[1-[2-(4-Fluorophenyl)-2-oxoethyl]piperidin-4-yl]methyl]-4,5-dihydro-6H-furo[2,3-c]pyrrol-6-one fumarate]

More lines, now with the values behind:

Structure (SMILES) | inhibition at 0.01 µM [%]
COc1ccccc1CCN1CCC(CN2Cc3cc(C#N)ccc3C2=O)CC1 [Example 170, 5-Cyano-2-[1-[2-(2-methoxyphenyl)ethyl]piperidin-4-ylmethyl]isoindolin-1-one fumarate] | 52
O=C1c2ccccc2CN1CC1CCN(CCc2ccccc2C(F)(F)F)CC1 [Example 96, 2-[[1-[2-(2-Trifluoromethylphenyl)ethyl]piperidin-4-yl]methyl]-isoindolin-1-one fumarate] | 66
O=C(CN1CCC(CN2Cc3ccccc3C2=O)CC1)C1CCCCC1 [Example 84, 2-[[1-(2-Cyclohexyl-2-oxoethyl)piperidin-4-yl]methyl]isoindolin-1-one fumarate] | 58
COc1ccccc1C(=O)CN1CCC(CN2Cc3ccccc3C2=O)CC1 [Example 72, 2-[[1-[2-(2-Methoxyphenyl)-2-oxoethyl]piperidin-4-yl]methyl]isoindolin-1-one fumarate] | 55
O=C1c2ccccc2CN1CC1CCN(CC(=O)N2CCc3ccccc32)CC1 [Example 51, 2-[[1-[2-(Indolin-1-yl)-2-oxoethyl]piperidin-4-yl]methyl]isoindolin-1-one fumarate] | 74
